Data: PubChem BioAssay (NCI)
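How tested: cells in 96-well plates exposed to compound for 48 hours at five concentrations. The concentration for full growth arrest is given as TGI.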

Assays:
Experiment in all cases: growth of human tumour cells (NCI), 48 h
MALME-3M melanoma = system: MALME-3M melanoma
SF-539 CNS = system: SF-539 CNS
T-47D breast = system: T-47D breast
MOLT-4 leukemia = system: MOLT-4 leukemia
KM12 colon = system: KM12 colon
NCI-H226 lung = system: NCI-H226 lung
M14 melanoma = system: M14 melanoma
IGROV1 ovarian = system: IGROV1 ovarian
SNB-19 CNS = system: SNB-19 CNS
RPMI-8226 leukemia = system: RPMI-8226 leukemia

SMILES	TGI (MALME-3M melanoma) [µM]	TGI (SF-539 CNS) [µM]	TGI (T-47D breast) [µM]	TGI (MOLT-4 leukemia) [µM]	TGI (KM12 colon) [µM]	TGI (NCI-H226 lung) [µM]	TGI (M14 melanoma) [µM]	TGI (IGROV1 ovarian) [µM]	TGI (SNB-19 CNS) [µM]	TGI (RPMI-8226 leukemia) [µM]
COc1ccc(CNc2nc(NCc3ccc(OC)c(OC)c3)nc(NC3CCCCC3)n2)cc1	> 100	8.46	> 100	> 100	17	> 100	> 100	> 100	> 100	–
CC(N)Cc1ccc(C(=O)Cl)cc1 (centres undefined)	> 100	> 100	–	> 100	> 100	–	> 100	> 100	–	> 100
COC(=O)[C@H]1CO[C@@H](C(C)(C)C)N1C(=O)N1C=CC(=O)C[C@@H]1C	> 100	–	> 100	–	> 100	> 100	–	> 100	–	> 100
CCNC(=S)N/N=C/c1cc([N+](=O)[O-])ccc1O	> 100	> 100	> 100	63.7	> 100	> 100	> 100	> 100	> 100	–
CC(=O)O[C@H]1C(=O)[C@]2(C)[C@@H](OC(=O)OCCC(O)CO)C[C@H]3OC[C@@]3(OC(C)=O)[C@H]2[C@H](OC(=O)c2ccccc2)[C@]2(O)C[C@H](OC(=O)[C@H](O)[C@@H](NC(=O)c3ccccc3)c3ccccc3)C(C)=C1C2(C)C (some centres undefined)	16.3	0.0297	–	12.7	–	0.576	7.16	19.8	88.4	–
N#CN=C(N(Cc1ccccc1)Cc1ccccc1)N(Cc1ccccc1)Cc1ccccc1	> 100	> 100	–	> 100	> 100	> 100	> 100	> 100	> 100	> 100
N.N.N.N.O=[N+]([O-])[O-].[Co+3].[N-]=[N+]=[N-].[N-]=[N+]=[N-]	> 100	> 100	–	> 100	> 100	–	> 100	> 100	> 100	> 100
CCC[C@@H](O)C[C@@H]1CCC[C@H](C[C@@H](O)CC)N1C	–	> 100	> 100	> 100	> 100	> 100	> 100	> 100	> 100	> 100
Cc1cc(=O)[nH]c(NN2C(Cl)C(=O)C2c2ccccc2O)n1 (centres undefined)	–	> 58.6	> 100	> 100	> 100	9.16	> 34.7	> 100	> 100	> 63.2
CCc1ccc(CCN2CCCCC2)nc1	> 100	–	> 100	> 100	> 100	> 100	> 100	> 100	> 100	> 100
CCN(CC)CCC(=O)Nc1ccc2c(c1)C(=O)c1ccc(NC(=O)CCN(CC)CC)cc1C2=O	–	15.3	–	12.2	4.57	7.8	27.1	12	18.6	19.9
COc1ccc(/C=C2\CCC(C)C3=C2NC(=S)NC3c2ccc(OC)c(OC)c2)cc1OC (centres undefined)	–	> 31.6	> 27.4	25.3	> 31.6	> 100	> 31.6	> 31.6	> 31.6	> 31.6
